System: intra-erythrocytic bacterial structures (Mycoplasma haemosapiens)
Type: in vivo, human
Conditions: Patient A, during doxycycline 100 mg twice daily; declined from about 16% before therapy

## C[C@H]1c2cccc(O)c2C(=O)C2=C(O)[C@]3(O)C(=O)C(C(N)=O)=C(O)[C@@H](N(C)C)[C@@H]3[C@@H](O)[C@@H]21 [doxycycline]
  percentage of parasitized erythrocytes: approximately 8%
